Measurements reported in PubChem BioAssay (NCI).
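Step 1: Grow cells in 96-well plates. Step 2: Expose to compound for 48 hours at 5 concentrations. Step 3: Interpolate endpoints linearly; if unreached, use highest concentration. GI50: concentration for 50% inhibition of growth. Definition used: TGI = concentration required for complete inhibition of growth.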

tested on: 786-0 renal; test: inhibition of tumour cell growth, NCI panel, 48 h

`COc1cc[nH]c1/C=C1\C(=O)Nc2ccccc21` and `Cc1cn2c(/C=C3/C(=O)N(C)c4ccccc43)c(C)nc2s1` are within 1.5-fold of each other in GI50: 15.9 µM for the first, 20.1 µM for the second.

Compared with `COc1cc(NC(=O)c2cc(O)c(CC=C(C)C)c(O)c2)cc2c1O[C@]1(C)CC[C@@H](O)C(C)(C)[C@H]1C2`, `CC(C)c1ccc(C(=O)Nc2sc3c(c2C(N)=O)CCC(=O)C3)cc1` is 4-fold higher in GI50: 0.567 µM for the first, 2.29 µM for the second.

First: Cc1ccc(C(=NN=C(N)N)c2ccc(C)cc2)cc1
Second: CCCCN=C(N)c1ccc(OCCSCCOc2ccc(C(N)=NCCCC)cc2)cc1
The GI50 of the first is lower: 0.623 µM for the first, over 100 µM for the second.

First: Clc1nc(Cl)c2ncn(Cc3cccc(COc4cccc(OCc5cccc(Cn6cnc7c(Cl)nc(Cl)nc76)c5)c4)c3)c2n1
Second: CCS(=O)(=O)c1ccc(OC)c(Nc2ncc(-c3cccc(OC)c3)o2)c1
The GI50 of the first is 7.8-fold higher: 74.8 µM for the first, 9.57 µM for the second.

`COc1cc[nH]c1/C=C1\C(=O)Nc2ccccc21` and `Cc1cn2c(/C=C3/C(=O)N(C)c4ccccc43)c(C)nc2s1` cannot be ordered by TGI: over 25 µM for the first, over 100 µM for the second.

`COc1cc(NC(=O)c2cc(O)c(CC=C(C)C)c(O)c2)cc2c1O[C@]1(C)CC[C@@H](O)C(C)(C)[C@H]1C2` and `CC(C)c1ccc(C(=O)Nc2sc3c(c2C(N)=O)CCC(=O)C3)cc1` are within 1.5-fold of each other in TGI: 7.24 µM for the first, 10.5 µM for the second.

`Cc1cc(S(=O)(=O)Nc2nc(N)nc(N3N=CCC3C)n2)c(SCC(=O)O)cc1Cl` (stereo not given) and `CCS(=O)(=O)c1ccc(OC)c(Nc2ncc(-c3cccc(OC)c3)o2)c1` cannot be ordered by TGI: over 10 µM for the first, over 25 µM for the second.

First: Cc1ccc(C(=NN=C(N)N)c2ccc(C)cc2)cc1
Second: CCCCN=C(N)c1ccc(OCCSCCOc2ccc(C(N)=NCCCC)cc2)cc1
The TGI of the first is lower: 2.86 µM for the first, over 100 µM for the second.

In the case of `Clc1nc(Cl)c2ncn(Cc3cccc(COc4cccc(OCc5cccc(Cn6cnc7c(Cl)nc(Cl)nc76)c5)c4)c3)c2n1`, the TGI is reported as over 100 µM.

tested on: UACC-257 melanoma; test: inhibition of tumour cell growth, NCI panel, 48 h

Compared with `COc1cc[nH]c1/C=C1\C(=O)Nc2ccccc21`, `Cc1cn2c(/C=C3/C(=O)N(C)c4ccccc43)c(C)nc2s1` is 3.9-fold higher in GI50: 17.3 µM for the first, 67.8 µM for the second.

First: COc1cc(NC(=O)c2cc(O)c(CC=C(C)C)c(O)c2)cc2c1O[C@]1(C)CC[C@@H](O)C(C)(C)[C@H]1C2
Second: CC(C)c1ccc(C(=O)Nc2sc3c(c2C(N)=O)CCC(=O)C3)cc1
The GI50 of the first is 1.6-fold higher: 3.37 µM for the first, 2.05 µM for the second.

Going from `Cc1ccc(C(=NN=C(N)N)c2ccc(C)cc2)cc1` to `CCCCN=C(N)c1ccc(OCCSCCOc2ccc(C(N)=NCCCC)cc2)cc1`, the GI50 rises from 0.498 µM to 4.4 µM (8.8-fold).

Going from `Clc1nc(Cl)c2ncn(Cc3cccc(COc4cccc(OCc5cccc(Cn6cnc7c(Cl)nc(Cl)nc76)c5)c4)c3)c2n1` to `CCS(=O)(=O)c1ccc(OC)c(Nc2ncc(-c3cccc(OC)c3)o2)c1`, the GI50 rises from 13.5 µM to over 22.2 µM.

`COc1cc[nH]c1/C=C1\C(=O)Nc2ccccc21` and `Cc1cn2c(/C=C3/C(=O)N(C)c4ccccc43)c(C)nc2s1` cannot be ordered by TGI: over 25 µM for the first, over 100 µM for the second.

Going from `COc1cc(NC(=O)c2cc(O)c(CC=C(C)C)c(O)c2)cc2c1O[C@]1(C)CC[C@@H](O)C(C)(C)[C@H]1C2` to `CC(C)c1ccc(C(=O)Nc2sc3c(c2C(N)=O)CCC(=O)C3)cc1`, the TGI falls from 15.7 µM to 5.04 µM (3.1-fold).

`Cc1cc(S(=O)(=O)Nc2nc(N)nc(N3N=CCC3C)n2)c(SCC(=O)O)cc1Cl` (stereo not given) and `CCS(=O)(=O)c1ccc(OC)c(Nc2ncc(-c3cccc(OC)c3)o2)c1` cannot be ordered by TGI: over 10 µM for the first, over 25 µM for the second.

Compared with `Cc1ccc(C(=NN=C(N)N)c2ccc(C)cc2)cc1`, `CCCCN=C(N)c1ccc(OCCSCCOc2ccc(C(N)=NCCCC)cc2)cc1` is 35-fold higher in TGI: 2.07 µM for the first, 71.8 µM for the second.

`Clc1nc(Cl)c2ncn(Cc3cccc(COc4cccc(OCc5cccc(Cn6cnc7c(Cl)nc(Cl)nc76)c5)c4)c3)c2n1` showed a TGI of over 100 µM.

tested on: SW-620 colon; test: inhibition of tumour cell growth, NCI panel, 48 h

Going from `COc1cc[nH]c1/C=C1\C(=O)Nc2ccccc21` to `Cc1cn2c(/C=C3/C(=O)N(C)c4ccccc43)c(C)nc2s1`, the GI50 falls from 7.24 µM to 4.3 µM (1.7-fold).

Compared with `COc1cc(NC(=O)c2cc(O)c(CC=C(C)C)c(O)c2)cc2c1O[C@]1(C)CC[C@@H](O)C(C)(C)[C@H]1C2`, `CC(C)c1ccc(C(=O)Nc2sc3c(c2C(N)=O)CCC(=O)C3)cc1` is 12-fold lower in GI50: 3.09 µM for the first, 0.256 µM for the second.

Compared with `Cc1ccc(C(=NN=C(N)N)c2ccc(C)cc2)cc1`, `CCCCN=C(N)c1ccc(OCCSCCOc2ccc(C(N)=NCCCC)cc2)cc1` is 27-fold higher in GI50: 0.379 µM for the first, 10.2 µM for the second.

Compared with `Clc1nc(Cl)c2ncn(Cc3cccc(COc4cccc(OCc5cccc(Cn6cnc7c(Cl)nc(Cl)nc76)c5)c4)c3)c2n1`, `CCS(=O)(=O)c1ccc(OC)c(Nc2ncc(-c3cccc(OC)c3)o2)c1` is lower in GI50: over 100 µM for the first, 9.09 µM for the second.

`COc1cc[nH]c1/C=C1\C(=O)Nc2ccccc21` and `Cc1cn2c(/C=C3/C(=O)N(C)c4ccccc43)c(C)nc2s1` cannot be ordered by TGI: over 25 µM for the first, over 100 µM for the second.

First: COc1cc(NC(=O)c2cc(O)c(CC=C(C)C)c(O)c2)cc2c1O[C@]1(C)CC[C@@H](O)C(C)(C)[C@H]1C2
Second: CC(C)c1ccc(C(=O)Nc2sc3c(c2C(N)=O)CCC(=O)C3)cc1
The TGI of the first is 8.6-fold higher: 13.8 µM for the first, 1.6 µM for the second.

`Cc1cc(S(=O)(=O)Nc2nc(N)nc(N3N=CCC3C)n2)c(SCC(=O)O)cc1Cl` (stereo not given) and `CCS(=O)(=O)c1ccc(OC)c(Nc2ncc(-c3cccc(OC)c3)o2)c1` cannot be ordered by TGI: over 10 µM for the first, over 25 µM for the second.

Compared with `Cc1ccc(C(=NN=C(N)N)c2ccc(C)cc2)cc1`, `CCCCN=C(N)c1ccc(OCCSCCOc2ccc(C(N)=NCCCC)cc2)cc1` is higher in TGI: 1.66 µM for the first, over 100 µM for the second.

With `Clc1nc(Cl)c2ncn(Cc3cccc(COc4cccc(OCc5cccc(Cn6cnc7c(Cl)nc(Cl)nc76)c5)c4)c3)c2n1` the TGI was over 100 µM.

tested on: T-47D breast; test: inhibition of tumour cell growth, NCI panel, 48 h

`COc1cc[nH]c1/C=C1\C(=O)Nc2ccccc21` and `Cc1cn2c(/C=C3/C(=O)N(C)c4ccccc43)c(C)nc2s1` are within 1.5-fold of each other in GI50: 4.05 µM for the first, 4.49 µM for the second.

Compared with `COc1cc(NC(=O)c2cc(O)c(CC=C(C)C)c(O)c2)cc2c1O[C@]1(C)CC[C@@H](O)C(C)(C)[C@H]1C2`, `CC(C)c1ccc(C(=O)Nc2sc3c(c2C(N)=O)CCC(=O)C3)cc1` is 7.8-fold lower in GI50: 2.44 µM for the first, 0.312 µM for the second.

Compared with `Cc1ccc(C(=NN=C(N)N)c2ccc(C)cc2)cc1`, `CCCCN=C(N)c1ccc(OCCSCCOc2ccc(C(N)=NCCCC)cc2)cc1` is 2.1-fold higher in GI50: 0.869 µM for the first, 1.83 µM for the second.

First: Clc1nc(Cl)c2ncn(Cc3cccc(COc4cccc(OCc5cccc(Cn6cnc7c(Cl)nc(Cl)nc76)c5)c4)c3)c2n1
Second: CCS(=O)(=O)c1ccc(OC)c(Nc2ncc(-c3cccc(OC)c3)o2)c1
The GI50 of the first is 3.2-fold higher: 25.8 µM for the first, 8.18 µM for the second.

`COc1cc[nH]c1/C=C1\C(=O)Nc2ccccc21` and `Cc1cn2c(/C=C3/C(=O)N(C)c4ccccc43)c(C)nc2s1` cannot be ordered by TGI: over 25 µM for the first, over 100 µM for the second.

First: COc1cc(NC(=O)c2cc(O)c(CC=C(C)C)c(O)c2)cc2c1O[C@]1(C)CC[C@@H](O)C(C)(C)[C@H]1C2
Second: CC(C)c1ccc(C(=O)Nc2sc3c(c2C(N)=O)CCC(=O)C3)cc1
The TGI of the first is 11-fold higher: 22.6 µM for the first, 2.1 µM for the second.

`Cc1cc(S(=O)(=O)Nc2nc(N)nc(N3N=CCC3C)n2)c(SCC(=O)O)cc1Cl` (stereo not given) and `CCS(=O)(=O)c1ccc(OC)c(Nc2ncc(-c3cccc(OC)c3)o2)c1` cannot be ordered by TGI: over 10 µM for the first, over 25 µM for the second.

First: Cc1ccc(C(=NN=C(N)N)c2ccc(C)cc2)cc1
Second: CCCCN=C(N)c1ccc(OCCSCCOc2ccc(C(N)=NCCCC)cc2)cc1
The TGI of the first is 2.3-fold lower: 10.9 µM for the first, 24.8 µM for the second.

`Clc1nc(Cl)c2ncn(Cc3cccc(COc4cccc(OCc5cccc(Cn6cnc7c(Cl)nc(Cl)nc76)c5)c4)c3)c2n1` was tested, and the TGI was over 100 µM.

tested on: HL-60(TB) leukemia; test: inhibition of tumour cell growth, NCI panel, 48 h

Compared with `COc1cc[nH]c1/C=C1\C(=O)Nc2ccccc21`, `Cc1cn2c(/C=C3/C(=O)N(C)c4ccccc43)c(C)nc2s1` is 2.7-fold lower in GI50: 6.58 µM for the first, 2.42 µM for the second.

Going from `COc1cc(NC(=O)c2cc(O)c(CC=C(C)C)c(O)c2)cc2c1O[C@]1(C)CC[C@@H](O)C(C)(C)[C@H]1C2` to `CC(C)c1ccc(C(=O)Nc2sc3c(c2C(N)=O)CCC(=O)C3)cc1`, the GI50 falls from 1.88 µM to 0.615 µM (3.1-fold).

Compared with `Cc1ccc(C(=NN=C(N)N)c2ccc(C)cc2)cc1`, `CCCCN=C(N)c1ccc(OCCSCCOc2ccc(C(N)=NCCCC)cc2)cc1` is 28-fold higher in GI50: 0.214 µM for the first, 5.97 µM for the second.

First: Clc1nc(Cl)c2ncn(Cc3cccc(COc4cccc(OCc5cccc(Cn6cnc7c(Cl)nc(Cl)nc76)c5)c4)c3)c2n1
Second: CCS(=O)(=O)c1ccc(OC)c(Nc2ncc(-c3cccc(OC)c3)o2)c1
The GI50 of the first is 3.6-fold lower: 4.61 µM for the first, 16.4 µM for the second.

Going from `COc1cc[nH]c1/C=C1\C(=O)Nc2ccccc21` to `Cc1cn2c(/C=C3/C(=O)N(C)c4ccccc43)c(C)nc2s1`, the TGI falls from over 25 µM to 6.19 µM.

Going from `COc1cc(NC(=O)c2cc(O)c(CC=C(C)C)c(O)c2)cc2c1O[C@]1(C)CC[C@@H](O)C(C)(C)[C@H]1C2` to `CC(C)c1ccc(C(=O)Nc2sc3c(c2C(N)=O)CCC(=O)C3)cc1`, the TGI falls from 18.7 µM to 4.82 µM (3.9-fold).

`Cc1cc(S(=O)(=O)Nc2nc(N)nc(N3N=CCC3C)n2)c(SCC(=O)O)cc1Cl` (stereo not given) and `CCS(=O)(=O)c1ccc(OC)c(Nc2ncc(-c3cccc(OC)c3)o2)c1` cannot be ordered by TGI: over 10 µM for the first, over 25 µM for the second.

Compared with `Cc1ccc(C(=NN=C(N)N)c2ccc(C)cc2)cc1`, `CCCCN=C(N)c1ccc(OCCSCCOc2ccc(C(N)=NCCCC)cc2)cc1` is 44-fold higher in TGI: 0.685 µM for the first, 30 µM for the second.

`Clc1nc(Cl)c2ncn(Cc3cccc(COc4cccc(OCc5cccc(Cn6cnc7c(Cl)nc(Cl)nc76)c5)c4)c3)c2n1` gave a TGI of 31.3 µM.
